Assay results from PubChem BioAssay (NCI).
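Five concentrations, 48 hours, 96-well plates. At the TGI there is no net growth.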

What was measured:
Test in all cases: growth of human tumour cells (NCI), 48 h
[1] = test system: NCI-H460 lung
[2] = test system: SF-268 CNS
[3] = test system: UACC-257 melanoma
[4] = test system: NCI-H226 lung
[5] = test system: UACC-62 melanoma
[6] = test system: SNB-75 CNS
[7] = test system: SNB-19 CNS
[8] = test system: OVCAR-5 ovarian
[9] = test system: IGROV1 ovarian
[10] = test system: DLD-1 colon
[11] = test system: NCI-H23 lung
[12] = test system: SW-620 colon
[13] = test system: CCRF-CEM leukemia
[14] = test system: SK-MEL-28 melanoma
[15] = test system: OVCAR-4 ovarian
[16] = test system: 786-0 renal
[17] = test system: SF-539 CNS
[18] = test system: DMS 114 small cell lung
[19] = test system: SNB-78 CNS
[20] = test system: SF-295 CNS
[21] = test system: HT29 colon
[22] = test system: DMS 273 small cell lung
[23] = test system: XF 498 CNS
[24] = test system: HOP-62 NSCLC
[25] = test system: HCT-116 colon
[26] = test system: ACHN renal
[27] = test system: HOP-92 NSCLC
[28] = test system: NCI-H522 lung
[29] = test system: CAKI-1 renal
[30] = test system: MOLT-4 leukemia
[31] = test system: KM12 colon
[32] = test system: TK-10 renal
[33] = test system: U251 CNS
[34] = test system: A498 renal
[35] = test system: SK-OV-3 ovarian
[36] = test system: MALME-3M melanoma
[37] = test system: UO-31 renal
[38] = test system: SK-MEL-2 melanoma
[39] = test system: M19-MEL melanoma
[40] = test system: OVCAR-8 ovarian
[41] = test system: RXF 393 renal
[42] = test system: M14 melanoma
[43] = test system: SK-MEL-5 melanoma
[44] = test system: HL-60(TB) leukemia
[45] = test system: OVCAR-3 ovarian
[46] = test system: K-562 leukemia
[47] = test system: EKVX NSCLC
[48] = test system: SN12C renal
[49] = test system: LOX IMVI melanoma
[50] = test system: COLO 205 colon
[51] = test system: RPMI-8226 leukemia
[52] = test system: KM20L2 colon
[53] = test system: HCC-2998 colon
[54] = test system: A549 NSCLC
[55] = test system: HCT-15 colon
[56] = test system: LXFL 529 NSCLC
[57] = test system: HS 578T breast
[58] = test system: NCI/ADR-RES ovarian
[59] = test system: MDA-MB-231 breast
[60] = test system: T-47D breast
[61] = test system: DU-145 prostate
[62] = test system: MDA-N
[63] = test system: SR leukemia
[64] = test system: BT-549 breast
[65] = test system: MCF7 breast
[66] = test system: MDA-MB-435
[67] = test system: PC-3 prostate

SMILES: COC(OC)c1cc2c(cc1C(=O)[C@@]13CCC[C@@H]1NC(=O)O3)OCO2
- TGI [1]: > 100 µM
- TGI [2]: > 100 µM
- TGI [3]: > 100 µM
- TGI [4]: > 100 µM
- TGI [5]: > 100 µM
- TGI [6]: > 100 µM
- TGI [7]: > 100 µM
- TGI [8]: > 100 µM
- TGI [9]: > 100 µM
- TGI [10]: > 100 µM
- TGI [11]: > 100 µM
- TGI [12]: > 100 µM
- TGI [13]: > 100 µM
- TGI [14]: > 100 µM
- TGI [15]: > 100 µM
- TGI [16]: > 100 µM
- TGI [17]: > 100 µM
- TGI [18]: > 100 µM
- TGI [19]: > 100 µM
- TGI [20]: > 100 µM
- TGI [21]: > 100 µM
- TGI [22]: > 100 µM
- TGI [23]: > 100 µM
- TGI [24]: > 100 µM
- TGI [25]: > 100 µM
- TGI [26]: > 100 µM
- TGI [27]: > 100 µM
- TGI [28]: > 100 µM
- TGI [29]: > 100 µM
- TGI [30]: > 100 µM
- TGI [31]: > 100 µM
- TGI [32]: > 100 µM
- TGI [33]: > 100 µM
- TGI [34]: > 100 µM
- TGI [35]: > 100 µM
- TGI [36]: > 100 µM
- TGI [37]: > 100 µM
- TGI [38]: > 100 µM
- TGI [39]: > 100 µM
- TGI [40]: > 100 µM
- TGI [41]: > 100 µM
- TGI [42]: > 100 µM
- TGI [43]: > 100 µM
- TGI [44]: > 100 µM
- TGI [45]: > 100 µM
- TGI [46]: > 100 µM
- TGI [47]: > 100 µM
- TGI [48]: > 100 µM

SMILES: COC(=O)/C(=N\NC(N)=S)C(C#N)c1ccccc1 (stereo not given)
- TGI [49]: > 100 µM
- TGI [1]: > 100 µM
- TGI [50]: > 100 µM
- TGI [2]: > 100 µM
- TGI [3]: > 100 µM
- TGI [4]: > 100 µM
- TGI [51]: > 100 µM
- TGI [52]: > 100 µM
- TGI [5]: > 100 µM
- TGI [53]: > 100 µM
- TGI [6]: > 100 µM
- TGI [7]: > 100 µM
- TGI [8]: > 100 µM
- TGI [9]: > 100 µM
- TGI [10]: > 100 µM
- TGI [11]: > 100 µM
- TGI [12]: > 100 µM
- TGI [54]: > 100 µM
- TGI [13]: > 100 µM
- TGI [14]: > 100 µM
- TGI [15]: > 100 µM
- TGI [16]: > 100 µM
- TGI [17]: > 100 µM
- TGI [18]: > 100 µM
- TGI [19]: > 100 µM
- TGI [20]: > 100 µM
- TGI [21]: > 100 µM
- TGI [23]: > 100 µM
- TGI [55]: > 100 µM
- TGI [56]: > 100 µM
- TGI [24]: > 100 µM
- TGI [25]: > 100 µM
- TGI [26]: > 100 µM
- TGI [27]: > 100 µM
- TGI [28]: > 100 µM
- TGI [30]: > 100 µM
- TGI [31]: > 100 µM
- TGI [32]: > 100 µM
- TGI [33]: > 100 µM
- TGI [34]: > 100 µM
- TGI [35]: > 100 µM
- TGI [36]: > 100 µM
- TGI [37]: > 100 µM
- TGI [38]: > 100 µM
- TGI [39]: > 100 µM
- TGI [40]: > 100 µM
- TGI [41]: > 100 µM
- TGI [42]: > 100 µM
- TGI [43]: > 100 µM
- TGI [44]: > 100 µM
- TGI [45]: > 100 µM
- TGI [46]: > 100 µM
- TGI [47]: > 100 µM
- TGI [48]: > 100 µM

SMILES: COc1ccc(-c2cc(C(O)C3CCCCN3)c3ccccc3n2)cc1 (stereo not given)
- TGI [57]: 40.3 µM
- TGI [49]: 16 µM
- TGI [1]: 10.4 µM
- TGI [50]: 3.54 µM
- TGI [58]: 39 µM
- TGI [2]: 27.7 µM
- TGI [3]: 4.48 µM
- TGI [4]: 20.9 µM
- TGI [51]: 5.82 µM
- TGI [59]: 9.83 µM
- TGI [5]: 12 µM
- TGI [60]: 14.1 µM
- TGI [53]: 3.7 µM
- TGI [6]: 17.1 µM
- TGI [61]: 20.5 µM
- TGI [62]: 16.7 µM
- TGI [7]: 28.1 µM
- TGI [8]: 24.8 µM
- TGI [9]: 22.4 µM
- TGI [63]: 1.46 µM
- TGI [64]: 32.2 µM
- TGI [11]: 31.6 µM
- TGI [12]: 25.2 µM
- TGI [54]: 27.8 µM
- TGI [13]: 9.08 µM
- TGI [14]: 5.49 µM
- TGI [15]: 27.5 µM
- TGI [16]: 20.6 µM
- TGI [17]: 23.5 µM
- TGI [65]: 14.2 µM
- TGI [20]: 28.4 µM
- TGI [21]: 11.5 µM
- TGI [55]: 34.2 µM
- TGI [24]: 24.3 µM
- TGI [25]: 21.5 µM
- TGI [26]: 24.4 µM
- TGI [27]: 13.1 µM
- TGI [28]: 22.4 µM
- TGI [29]: 18.4 µM
- TGI [30]: 13.6 µM
- TGI [31]: 15.3 µM
- TGI [66]: 15.1 µM
- TGI [32]: 23.7 µM
- TGI [33]: 14.5 µM
- TGI [34]: 25.4 µM
- TGI [35]: 27.3 µM
- TGI [36]: 28.9 µM
- TGI [37]: 8.54 µM
- TGI [38]: 18.5 µM
- TGI [40]: 29.5 µM
- TGI [41]: 11.3 µM
- TGI [67]: 16.9 µM
- TGI [42]: 4.61 µM
- TGI [43]: 17.2 µM
- TGI [44]: 26.4 µM
- TGI [45]: 27.8 µM
- TGI [46]: 8.24 µM
- TGI [47]: 20.2 µM
- TGI [48]: 23.7 µM

SMILES: CCOC(=O)c1cnccc1CC1(C#N)c2ccccc2C=CN1C(=O)c1ccccc1 (stereo not given)
- TGI [57]: 46.4 µM
- TGI [49]: 72.9 µM
- TGI [1]: 89.5 µM
- TGI [50]: > 100 µM
- TGI [58]: > 100 µM
- TGI [2]: 82 µM
- TGI [3]: > 100 µM
- TGI [4]: > 100 µM
- TGI [51]: 27.6 µM
- TGI [59]: > 100 µM
- TGI [5]: 80.9 µM
- TGI [60]: > 100 µM
- TGI [53]: > 100 µM
- TGI [6]: 52.9 µM
- TGI [61]: > 100 µM
- TGI [62]: 45.8 µM
- TGI [7]: > 100 µM
- TGI [8]: > 100 µM
- TGI [9]: 39.9 µM
- TGI [63]: 92.7 µM
- TGI [64]: > 100 µM
- TGI [11]: > 100 µM
- TGI [12]: > 100 µM
- TGI [54]: > 100 µM
- TGI [13]: > 100 µM
- TGI [14]: > 100 µM
- TGI [15]: > 100 µM
- TGI [16]: > 100 µM
- TGI [17]: 75.6 µM
- TGI [65]: > 100 µM
- TGI [20]: > 100 µM
- TGI [21]: 36 µM
- TGI [55]: > 100 µM
- TGI [24]: > 100 µM
- TGI [25]: > 100 µM
- TGI [26]: > 100 µM
- TGI [27]: > 100 µM
- TGI [28]: 54.8 µM
- TGI [29]: > 100 µM
- TGI [30]: 50.8 µM
- TGI [31]: 31.3 µM
- TGI [66]: > 100 µM
- TGI [32]: > 100 µM
- TGI [33]: > 100 µM
- TGI [34]: > 100 µM
- TGI [35]: > 100 µM
- TGI [36]: 26.5 µM
- TGI [37]: 91.1 µM
- TGI [38]: 41.4 µM
- TGI [40]: 37.2 µM
- TGI [41]: > 100 µM
- TGI [67]: > 100 µM
- TGI [42]: 79.1 µM
- TGI [43]: 37.8 µM
- TGI [44]: > 100 µM
- TGI [45]: > 100 µM
- TGI [46]: 49.6 µM
- TGI [47]: > 100 µM
- TGI [48]: 97.3 µM
